Experimental findings from the Kinase Knowledgebase extract (Sharma et al. 2016) are described below.

Usually IC50 stands for the point on the concentration scale where inhibition reaches its midpoint.

One assay addresses EGFR (UniProt P00533).
Assay [1] deals with EGFR (murine) (UniProt P00533). The note with it: nih3t3/c7.
Assay [2] concerns the target EGFR (murine) (UniProt P00533). As to conditions: 3t3.

Sequence of EGFR (P00533 whole entry, looked up): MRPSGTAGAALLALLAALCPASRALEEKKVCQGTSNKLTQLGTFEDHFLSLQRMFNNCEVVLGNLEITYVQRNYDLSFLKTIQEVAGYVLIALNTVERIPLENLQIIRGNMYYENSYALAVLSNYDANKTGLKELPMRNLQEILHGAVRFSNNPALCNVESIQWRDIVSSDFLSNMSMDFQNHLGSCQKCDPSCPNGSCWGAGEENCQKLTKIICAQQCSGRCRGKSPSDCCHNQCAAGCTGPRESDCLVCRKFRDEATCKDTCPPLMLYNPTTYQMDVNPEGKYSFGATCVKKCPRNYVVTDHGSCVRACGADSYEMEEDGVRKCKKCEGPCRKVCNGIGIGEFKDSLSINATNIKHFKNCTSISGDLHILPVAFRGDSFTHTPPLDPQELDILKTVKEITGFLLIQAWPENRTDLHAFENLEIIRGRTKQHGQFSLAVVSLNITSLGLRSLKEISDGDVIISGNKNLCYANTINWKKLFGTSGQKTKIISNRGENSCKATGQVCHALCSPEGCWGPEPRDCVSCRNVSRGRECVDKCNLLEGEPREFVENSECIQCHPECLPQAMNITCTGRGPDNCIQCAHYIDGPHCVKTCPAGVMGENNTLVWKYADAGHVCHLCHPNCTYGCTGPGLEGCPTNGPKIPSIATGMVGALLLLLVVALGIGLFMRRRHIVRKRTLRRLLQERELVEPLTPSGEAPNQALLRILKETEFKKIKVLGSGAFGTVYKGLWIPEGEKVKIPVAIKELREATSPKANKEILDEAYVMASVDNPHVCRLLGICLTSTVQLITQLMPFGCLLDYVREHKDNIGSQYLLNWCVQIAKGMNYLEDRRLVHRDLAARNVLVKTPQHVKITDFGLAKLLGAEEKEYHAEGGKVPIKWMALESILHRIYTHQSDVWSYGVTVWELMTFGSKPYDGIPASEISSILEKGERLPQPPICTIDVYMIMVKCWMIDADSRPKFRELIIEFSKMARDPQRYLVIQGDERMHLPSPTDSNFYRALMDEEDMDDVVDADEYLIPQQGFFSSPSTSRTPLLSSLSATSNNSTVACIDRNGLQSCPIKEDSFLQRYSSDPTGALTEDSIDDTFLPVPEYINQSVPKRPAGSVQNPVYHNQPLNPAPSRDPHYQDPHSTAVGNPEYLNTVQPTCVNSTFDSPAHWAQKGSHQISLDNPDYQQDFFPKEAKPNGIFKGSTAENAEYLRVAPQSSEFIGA
Sequence of EGFR (murine) (P00533 whole entry, looked up): as above

Regarding `O=C(O)CCc1c(/C=C2\C(=O)Nc3ccc(Br)cc32)[nH]c2c1CCCC2`, the 50% inhibitory concentration (IC50) at EGFR and with EGFR (murine) [1] was over 100 µM throughout.
Compound `O=C(O)CCc1c(/C=C2\C(=O)Nc3ccccc32)[nH]c2c1CCCC2` gave a concentration for half-maximal inhibition (IC50) against EGFR of over 100 µM.
For `CNS(=O)(=O)c1ccc2c(c1)/C(=C/c1c[nH]c3ccccc13)C(=O)N2`, the IC50 against EGFR and with EGFR (murine) [1] was over 100 µM throughout.
Regarding `COc1ccccc1-c1ccc2c(c1)NC(=O)/C2=C\c1[nH]c2c(c1CCC(=O)O)CCCC2`, the IC50 at EGFR and in the assay with EGFR (murine) [1] was over 100 µM each time.
Turning to `CN(C)S(=O)(=O)c1ccc2c(c1)/C(=C/c1ccc3[nH]ccc3c1)C(=O)N2`, the IC50 on EGFR and with EGFR (murine) [1] was over 100 µM throughout.
For `COc1ccc(-c2ccc3c(c2)NC(=O)/C3=C\c2[nH]c3c(c2CCC(=O)O)CCCC3)cc1`, the IC50 in the assay with EGFR (murine) [1] was over 100 µM.
As to `CN(C)S(=O)(=O)c1ccc2c(c1)/C(=C/c1c[nH]c3ccccc13)C(=O)N2`, the concentration for half-maximal inhibition (IC50) against EGFR and in the assay with EGFR (murine) [1] was over 100 µM in each case.
In the case of `O=C(O)CCc1c(/C=C2\C(=O)Nc3cc(-c4ccccc4)ccc32)[nH]c2c1CCCC2`, the IC50 against EGFR and with EGFR (murine) [1] was over 100 µM each time.
`NS(=O)(=O)c1ccc2c(c1)/C(=C/c1ccc3[nH]ccc3c1)C(=O)N2`: the IC50 against EGFR and with EGFR (murine) [1] was over 100 µM in each case.
Consider `Cc1[nH]c2ccccc2c1/C=C1\C(=O)Nc2ccc(S(=O)(=O)N(C)C)cc21`, for which the IC50 against EGFR and with EGFR (murine) [1] was over 100 µM in each case.
Take `CNS(=O)(=O)c1ccc2c(c1)/C(=C/c1ccc3[nH]ccc3c1)C(=O)N2`: the IC50 at EGFR and with EGFR (murine) [1] was over 100 µM in each case.
At EGFR, `CCOC(=O)c1[nH]c(/C=C2\C(=O)Nc3ccccc32)c(CCC(=O)O)c1C` gave an IC50 of over 100 µM.
Turning to `CNS(=O)(=O)c1ccc2c(c1)/C(=C/c1c(C)[nH]c3ccccc13)C(=O)N2`, the half-inhibitory concentration (IC50) against EGFR and with EGFR (murine) [1] was over 100 µM throughout.
With `Cc1[nH]c2ccccc2c1/C=C1\C(=O)Nc2ccc(S(N)(=O)=O)cc21`, the IC50 at EGFR and with EGFR (murine) [1] was over 100 µM in each case.
Consider `CC(=O)Nc1ccc2c(c1)NC(=O)/C2=C/c1ccc(OCCN2CCOCC2)cc1-c1cccs1`, for which the IC50 in the assay with EGFR (murine) [2] was 28.6 µM; against EGFR, over 100 µM; with EGFR (murine) [1], 79 µM.
For `COc1ccc2c(c1)NC(=O)/C2=C\c1[nH]c2c(c1CCC(=O)O)CCCC2`, the IC50 against EGFR is over 100 µM.
The same measure, in the same setting: the value for `Cc1c[nH]c(/C=C2\C(=O)Nc3cccc(C)c32)c1CCC(=O)O` was over 100 µM.
On the same count and under the same terms, for `CCOc1cccc(-c2ccc3c(c2)NC(=O)/C3=C\c2[nH]cc(C)c2CCC(=O)O)c1` the value was over 100 µM.
With `CN(C)S(=O)(=O)c1ccc2c(c1)/C(=C/c1cc3ccccc3[nH]1)C(=O)N2`, the IC50 against EGFR and in the assay with EGFR (murine) [1] was over 100 µM throughout.
